Measurements taken from patent US20240208981A1, “NITROGEN-CONTAINING HETEROCYCLIC POLYCYCLIC COMPOUND, PREPARATION METHOD THEREFOR, AND APPLICATION THEREOF” (Shanghai Hansoh Biomedical Co., Ltd., priority 2021, published 2024).

Assays:
human OX2R = human OX2R (Homo sapiens (Human), UniProt O43614); assay: Calcium flux in cells stably expressing OX2 receptor (FLIPR, Fluo-8 AM); type: cell-based; conditions: for IC50: CHO-K1/human OX2R cells, inhibition of calcium flux, agonist OX-B at EC80; for Selectivity multiple: OX1R IC50 versus OX2R IC50
human OX2R, sequence (O43614 whole entry): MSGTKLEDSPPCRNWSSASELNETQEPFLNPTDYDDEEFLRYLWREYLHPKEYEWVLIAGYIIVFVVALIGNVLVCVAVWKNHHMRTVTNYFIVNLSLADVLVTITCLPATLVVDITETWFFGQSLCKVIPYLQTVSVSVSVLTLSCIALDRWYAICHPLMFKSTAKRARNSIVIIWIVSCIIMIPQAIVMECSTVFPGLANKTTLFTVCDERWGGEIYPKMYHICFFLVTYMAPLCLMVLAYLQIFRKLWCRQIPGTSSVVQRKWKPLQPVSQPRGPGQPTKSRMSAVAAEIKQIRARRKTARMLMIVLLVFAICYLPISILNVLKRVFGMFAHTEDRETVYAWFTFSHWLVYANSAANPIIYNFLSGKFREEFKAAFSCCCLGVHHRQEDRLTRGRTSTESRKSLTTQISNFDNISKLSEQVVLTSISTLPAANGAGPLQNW
Protocol: (§1) To determine the inhibitory effect of the compounds on calcium flux in CHO-K1/human OX1R and CHO-K1/human OX2R cells.
(§2) • 1) CHO-K1/human OX1R and CHO-K1/human OX2R cell lines were cultured separately in complete medium at 37° C., 5% CO2 to 70%˜90% confluence; • 2) A 384-well cell culture plate was coated with 1× Matrigel (5 uL per well) at room temperature for 10-30 minutes; • 3) The cells were digested and resuspended in cell inoculation medium. CHO-K1/human OX1R and CHO-K1/human OX2R cell lines were inoculated into two 384-well cell culture plates respectively (8,000 cells/well/20 μL). The culture plates were incubated at 37 °C, 5% CO2 for 24 hours; • 4) The cell culture plates were taken out of the CO2 incubator and equilibrated at room temperature for 10 minutes; • 5) 1000× Fluo-8 AM was diluted with assay buffer 1 equilibrated to room temperature to obtain 1× Fluo-8 AM at a concentration of 2 μM; • 6) The culture medium in the cell culture plate was removed, and 20 μL of 1× Fluo-8 AM was added to each well. The plates were centrifuged at room temperature at 300 rpm for 60 seconds, and incubated at room temperature in the dark for 1 hour; • 7) Determination of EC80 of OX1 and OX2 receptors agonists (OX-A for OX1R assays, OX-B for OX2R assays): OX1 and OX2 receptors agonists working solutions were diluted and prepared respectively. The diluted OX1 and OX2 receptors agonists were added using FLIPR Tetra to the experimental wells of the 384-well cell culture plates corresponding to CHO-K1/human OX1R and CHO-K1/human OX2R cell lines. The data were collected, and EC80 of OX-A and OX-B was obtained according to the following experimental data processing method; • 8) Steps 1 to 7 were repeated. […] After 15 minutes, OX1 and OX2 receptors agonists were added to the plates of the two cell lines respectively according to the previously obtained EC80. The data were collected, and the IC50 of the positive compounds and the test compounds was determined.
(§3) Fluorescence signal value (RFU) was collected with FLIPR Tetra.

human OX1R = human OX1R (Homo sapiens (Human), UniProt O43613); assay: Calcium flux in cells stably expressing OX1 receptor (FLIPR, Fluo-8 AM); type: cell-based; conditions: CHO-K1/human OX1R cells; inhibition of calcium flux, agonist OX-A at EC80
human OX1R, sequence (O43613 whole entry): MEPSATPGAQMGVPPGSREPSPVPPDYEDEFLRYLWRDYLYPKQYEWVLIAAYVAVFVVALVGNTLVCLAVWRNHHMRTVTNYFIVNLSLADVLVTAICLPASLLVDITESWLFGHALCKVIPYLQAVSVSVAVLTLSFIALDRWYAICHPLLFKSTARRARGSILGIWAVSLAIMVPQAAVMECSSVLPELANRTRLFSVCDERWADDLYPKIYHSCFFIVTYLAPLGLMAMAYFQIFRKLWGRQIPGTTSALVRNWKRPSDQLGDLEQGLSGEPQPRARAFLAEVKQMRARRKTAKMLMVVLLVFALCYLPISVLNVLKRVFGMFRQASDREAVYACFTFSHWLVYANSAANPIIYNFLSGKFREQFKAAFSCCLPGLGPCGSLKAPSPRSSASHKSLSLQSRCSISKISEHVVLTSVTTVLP
Protocol: as §1, §2, §3

CYP450 1A2 = CYP450 1A2 (Homo sapiens (Human), UniProt P05177)
CYP450 1A2, sequence (P05177 whole entry): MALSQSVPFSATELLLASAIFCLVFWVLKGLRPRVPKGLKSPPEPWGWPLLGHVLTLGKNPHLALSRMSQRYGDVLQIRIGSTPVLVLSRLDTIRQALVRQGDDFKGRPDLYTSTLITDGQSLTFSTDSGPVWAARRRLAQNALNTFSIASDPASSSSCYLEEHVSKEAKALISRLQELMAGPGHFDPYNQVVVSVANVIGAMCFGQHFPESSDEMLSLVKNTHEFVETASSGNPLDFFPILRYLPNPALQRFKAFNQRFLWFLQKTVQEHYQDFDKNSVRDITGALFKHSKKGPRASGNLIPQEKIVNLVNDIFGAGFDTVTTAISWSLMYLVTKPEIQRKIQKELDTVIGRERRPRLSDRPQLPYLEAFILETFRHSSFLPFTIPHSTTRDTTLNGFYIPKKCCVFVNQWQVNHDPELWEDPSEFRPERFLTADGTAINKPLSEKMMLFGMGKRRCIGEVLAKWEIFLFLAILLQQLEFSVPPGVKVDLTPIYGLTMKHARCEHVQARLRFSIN
Protocol: (§4) The human liver microsome incubation system was used to rapidly predict the inhibitory effect of the compounds on CYP450 enzyme subtypes by using single-point method.
(§5) The compound of the example to be tested was weighed, diluted to 10 mM with DMSO, and then diluted to 100 μM with 100 mM phosphate buffer.
(§6) • 1. 40 μL of liver microsomes, 10 μL of substrate, and 10 μL of the test compound were added to a 96-well plate, and pre-incubated for 3 minutes. • 2. 40 μL of NADPH was added. • 3. 300 μL of acetonitrile stop solution containing an internal standard was added at 20 minutes. • 4. The sample was injected […].

CYP450 2D6 = CYP450 2D6 (Homo sapiens (Human), UniProt P10635); assay: CYP enzyme single point inhibition assay, human liver microsomes, 2D6; type: in vitro ADME; conditions: single-point method
CYP450 2D6, sequence (P10635 whole entry): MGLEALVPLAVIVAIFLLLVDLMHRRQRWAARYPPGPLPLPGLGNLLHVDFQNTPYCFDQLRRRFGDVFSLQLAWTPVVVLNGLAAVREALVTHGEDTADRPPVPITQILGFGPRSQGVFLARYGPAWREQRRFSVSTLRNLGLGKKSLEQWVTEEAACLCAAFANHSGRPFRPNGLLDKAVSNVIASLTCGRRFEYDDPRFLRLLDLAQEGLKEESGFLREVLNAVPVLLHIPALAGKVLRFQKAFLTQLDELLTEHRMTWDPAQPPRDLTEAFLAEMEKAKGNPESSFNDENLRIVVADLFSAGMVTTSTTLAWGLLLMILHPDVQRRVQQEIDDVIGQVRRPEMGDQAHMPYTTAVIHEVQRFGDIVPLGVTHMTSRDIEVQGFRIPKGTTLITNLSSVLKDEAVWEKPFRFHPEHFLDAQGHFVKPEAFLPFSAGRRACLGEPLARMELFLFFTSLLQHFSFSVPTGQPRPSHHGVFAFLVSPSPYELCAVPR
Protocol: as §4, §5, §6

CYP450 2C9 = CYP450 2C9 (Homo sapiens (Human), UniProt P11712); assay: CYP enzyme single point inhibition assay, human liver microsomes, 2C9; type: in vitro ADME; conditions: single-point method
CYP450 2C9, sequence (P11712 whole entry): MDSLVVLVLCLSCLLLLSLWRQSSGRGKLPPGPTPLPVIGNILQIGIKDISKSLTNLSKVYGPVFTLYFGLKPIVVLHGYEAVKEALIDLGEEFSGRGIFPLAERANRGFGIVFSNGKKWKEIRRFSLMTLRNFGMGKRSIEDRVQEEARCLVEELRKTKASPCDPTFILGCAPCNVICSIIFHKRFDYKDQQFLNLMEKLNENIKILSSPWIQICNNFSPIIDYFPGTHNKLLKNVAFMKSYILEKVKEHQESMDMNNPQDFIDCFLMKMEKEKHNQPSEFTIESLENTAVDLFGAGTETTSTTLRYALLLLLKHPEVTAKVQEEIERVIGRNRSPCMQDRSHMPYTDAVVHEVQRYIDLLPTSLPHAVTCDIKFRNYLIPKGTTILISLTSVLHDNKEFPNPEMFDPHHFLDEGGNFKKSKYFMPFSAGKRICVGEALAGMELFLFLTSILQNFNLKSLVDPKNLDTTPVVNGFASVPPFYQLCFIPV
Protocol: as §4, §5, §6

in vivo = conditions: male, SD, rat, po, 5 mg/kg
Protocol: SD rats were used as test animals.
The plasma samples were stored at −80° C.

In the case of Cc1cc(C)nc(N2C[C@H]3CN(C(=O)c4ccccc4OC(F)(F)C(F)F)C[C@H]3C2)n1 [Compound 45, ((3aR,6aS)-5-(4,6-dimethylpyrimidin-2-yl)hexahydropyrrolo[3,4-c]pyrrol-2(1H)-yl)(2-(1,1,2,2-tetrafluoroethoxy)phenyl)methanone], the IC50 (human OX2R) is reported as 0.0522 µM, the Selectivity multiple (human OX2R) is reported as 83 and the IC50 (human OX1R) is reported as 4.33 µM.

With Cc1cc(N2C[C@H]3CN(C(=O)c4c(O)cccc4-n4nccn4)C[C@H]3C2)nc(C(C)(C)O)c1 [Compound 85, (2-hydroxy-6-(2H-1,2,3-triazol-2-yl)phenyl)((3R,6S)-5-(6-(2-hydroxypropan-2-yl)-4-methylpyridin-2-yl)hexahydropyrrolo[3,4-c]pyrrol-2(1H)-yl)methanone] the IC50 (human OX2R) was 0.0585 µM, the Selectivity multiple (human OX2R) was 234 and the IC50 (human OX1R) was 13.7 µM.

Work on Cc1cc(C(C)(C)O)nc(N2C[C@H]3CN(C(=O)c4c(F)cccc4-c4ncccn4)C[C@H]3C2)n1 [Compound 56, (2-fluoro-6-(pyrimidin-2-yl)phenyl)((3R,6S)-5-(4-(2-hydroxypropan-2-yl)-6-methylpyrimidin-2-yl)hexahydropyrrolo[3,4-c]pyrrol-2(1H)-yl)methanone] yielded an IC50 (human OX2R) of 0.0082 µM, a Selectivity multiple (human OX2R) of 405 and an IC50 (human OX1R) of 3.32 µM.

Work on Cc1cc(C(C)(C)O)nc(N2C[C@H]3CN(C(=O)c4c(F)cccc4-n4nccn4)C[C@H]3C2)n1 [Compound 3, (2-fluoro-6-(2H-1,2,3-triazol-2-yl)phenyl)((3aR,6aS)-5-(4-(2-hydroxypropan-2-yl)-6-methylpyrimidin-2-yl)hexahydropyrrolo[3,4-c]pyrrol-2(1H)-yl)methanone] yielded an IC50 (human OX2R) of 0.0444 µM, a Selectivity multiple (human OX2R) of 83 and an IC50 (human OX1R) of 3.7 µM.

With CC(C)(O)c1nc(N2C[C@H]3CN(C(=O)c4c(F)cccc4-c4ncccn4)C[C@H]3C2)ncc1F [Compound 93, ((3aR,6aS)-5-(5-fluoro-4-(2-hydroxypropan-2-yl)pyrimidin-2-yl)hexahydropyrrolo[3,4-c]pyrrol-2(1H)-yl)(2-fluoro-6-(pyrimidin-2-yl)phenyl)methanone] the Selectivity multiple (human OX2R) was 122, the IC50 (CYP450 1A2) was over 100 µM and the IC50 (CYP450 2D6) was over 100 µM. The IC50 (CYP450 2C9) was over 100 µM.

In the case of Cc1cc(C)nc(N2C[C@H]3CN(C(=O)c4ccccc4-c4nc5ccccc5o4)C[C@H]3C2)n1 [Compound 50, (2-(benzooxazol-2-yl)phenyl)((3aR,6aS)-5-(4,6-dimethylpyrimidin-2-yl)hexahydropyrrolo[3,4-c]pyrrol-2(1H)-yl)methanone], the IC50 (human OX2R) is reported as 0.0711 µM, the Selectivity multiple (human OX2R) is reported as 82 and the IC50 (human OX1R) is reported as 5.84 µM.

With Cc1nc(N2C[C@H]3CN(C(=O)c4cccc(F)c4-n4nccn4)C[C@H]3C2)nc(C(C)(C)O)c1F [Compound 95, (3-fluoro-2-(2H-1,2,3-triazol-2-yl)phenyl)((cis)-5-(5-fluoro-4-(2-hydroxypropan-2-yl)-6-methylpyrimidin-2-yl)hexahydropyrrolo[3,4-c]pyrrol-2(1H)-yl)methanone] the Selectivity multiple (human OX2R) was 49, the IC50 (CYP450 1A2) was over 100 µM and the IC50 (CYP450 2D6) was over 100 µM. For the same compound, the IC50 (CYP450 2C9) was over 100 µM.

In the case of Cc1ccc(N2C[C@H]3CN(C(=O)c4c(F)cccc4-n4nccn4)C[C@H]3C2)nc1C(C)(C)O [Compound 48, (2-fluoro-6-(2H-1,2,3-triazol-2-yl)phenyl)((3aR,6aS)-5-(6-(2-hydroxypropan-2-yl)-5-methylpyridin-2-yl)hexahydropyrrolo[3,4-c]pyrrol-2(1H)-yl)methanone], the IC50 (human OX2R) is reported as 0.0745 µM, the Selectivity multiple (human OX2R) is reported as 328 and the IC50 (human OX1R) is reported as 24.4 µM.

For CC(C)(O)c1nc(N2C[C@H]3CN(C(=O)c4c(F)cccc4-n4nccn4)C[C@H]3C2)ccc1F [Compound 91, ((3aR,6aS)-5-(5-fluoro-6-(2-hydroxypropanyl)pyridin-2-yl)hexahydropyrrolo[3,4-c]pyrrol-2(1H)-yl)(2-fluoro-6-(2H-1,2,3-triazol-2-yl)phenyl)methanone], the IC50 (human OX2R) was 0.0359 µM, the Selectivity multiple (human OX2R) was 88 and the IC50 (human OX1R) was 3.16 µM.

Cc1nc(N2C[C@H]3CN(C(=O)c4c(F)cccc4-c4ccccn4)C[C@H]3C2)nc(C(C)(C)O)c1F [Compound 97, ((3aR,6aS)-5-(5-fluoro-4-(2-hydroxypropan-2-yl)-6-methylpyrimidin-2-yl)hexahydropyrrolo[3,4-c]pyrrol-2(1H)-yl)(2-fluoro-6-(pyridin-2-yl)phenyl)methanone] gave a Selectivity multiple (human OX2R) of 36.

Cc1cc(C(C)(C)F)nc(N2C[C@H]3CN(C(=O)c4c(F)cccc4-n4nccn4)C[C@H]3C2)n1 [Compound 57, (2-fluoro-6-(2H-1,2,3-triazol-2-yl)phenyl)((3aR,6aS)-5-(4-(2-fluoropropan-2-yl)-6-methylpyrimidin-2-yl)hexahydropyrrolo[3,4-c]pyrrol-2(1H)-yl)methanone] gave an AUC(0-inf) (in vivo) of 279 ng·h/mL, a Cmax (in vivo) of 110 ng/mL and a Tmax (in vivo) of 30 min. For the same compound, the IC50 (human OX2R) was 0.0097 µM, the Selectivity multiple (human OX2R) was 314 and the IC50 (human OX1R) was 3.05 µM.

Cc1nc(N2C[C@H]3CN(C(=O)c4ccc(F)cc4-n4nccn4)C[C@H]3C2)nc(C(C)(C)O)c1F [Compound 94, (4-fluoro-2-(2H-1,2,3-triazol-2-yl)phenyl)((cis)-5-(5-fluoro-4-(2-hydroxypropan-2-yl)-6-methylpyrimidin-2-yl)hexahydropyrrolo[3,4-c]pyrrol-2(1H)-yl)methanone] gave an IC50 (human OX2R) of 0.0252 µM, a Selectivity multiple (human OX2R) of 48 and an IC50 (human OX1R) of 1.2 µM.

For Cc1cc(N2C[C@H]3CN(C(=O)c4c(F)cccc4-n4nccn4)C[C@H]3C2)nc(C(C)(C)O)c1 [Compound 60, (2-fluoro-6-(2H-1,2,3-triazol-2-yl)phenyl)((3R,6S)-5-(6-(2-hydroxypropan-2-yl)-4-methylpyridin-2-yl)hexahydropyrrolo[3,4-c]pyrrol-2(1H)-yl)methanone], the IC50 (human OX2R) was 0.0552 µM, the Selectivity multiple (human OX2R) was 244 and the IC50 (CYP450 1A2) was over 100 µM. It also gave an IC50 (human OX1R) of 13.5 µM.

Cc1cc(C)nc(N2C[C@H]3CN(C(=O)c4c(F)cccc4-n4ncc(C5CC5)n4)C[C@H]3C2)n1 [Compound 43, (2-(4-cyclopropyl-2H-1,2,3-triazol-2-yl)-6-fluorophenyl)((3aR,6aS)-5-(4,6-dimethylpyrimidin-2-yl)hexahydropyrrolo[3,4-c]pyrrol-2(1H)-yl)methanone] gave an IC50 (human OX2R) of 0.0999 µM, a Selectivity multiple (human OX2R) of 102 and an IC50 (human OX1R) of 10.2 µM.
